For the assay, the system named is Carbonic Anhydrase (CA). In words: Surface plasmon resonance binding of compound to biotinylated CA-immobilized substrate. As to conditions: for Binding signal (binding observed or not) / Amount of 100 nM Hydrochlorothiazide bound: 100 nM in 1×PBS (pH 7.4); for Binding signal (binding observed or not): all the substrates; for Binding activity / Mean binding activity: 100 nM; for Binding activity: one-to-one binding assumed, molecular weight conversion; for Mean binding activity: mean of the three substrates (7450, 3400, 1600 RV CA).

Molecules are shown by their SMILES.

`NS(=O)(=O)c1cc2c(cc1Cl)NCNS2(=O)=O` [Hydrochlorothiazide]: the “Binding signal (binding observed or not)” value is “binding signal was observed”. For the same compound, the “Amount of 100 nM Hydrochlorothiazide bound” value (amount of CA immobilized 1600 RV, Comparative example (without calibration)) is reported as 7.1 RV. Besides, under “amount of CA immobilized 1600 RV, Example (with calibration of baseline, third curve approximation)”, the “Amount of 100 nM Hydrochlorothiazide bound” value worked out at 7.3 RV. The “Amount of 100 nM Hydrochlorothiazide bound” value (amount of CA immobilized 3400 RV, Example (with calibration of baseline, third curve approximation)) is 16.3 RV. Besides, the “Amount of 100 nM Hydrochlorothiazide bound” value (amount of CA immobilized 7450 RV, Comparative example (without calibration)) came out at 25.4 RV. The “Amount of 100 nM Hydrochlorothiazide bound” value (amount of CA immobilized 7450 RV, Example (with calibration of baseline, third curve approximation)) was found to be 31.7 RV. Further, under “CA immobilized 1600 RV, with calibration”, the Binding activity is given as 45.9%. The compound further yielded a Binding activity (CA immobilized 1600 RV, without calibration) of 44.7%. The compound further came in with a Binding activity (CA immobilized 3400 RV, with calibration) of 48.2%. Moreover, the Binding activity (CA immobilized 3400 RV, without calibration) came out at 40.6%. The same compound showed a Binding activity (CA immobilized 7450 RV, with calibration) of 42.8%. For the setting “CA immobilized 7450 RV, without calibration”, this compound showed a Binding activity of 34.4%. Where the note is “with calibration”, this compound had a Mean binding activity of 45.6%. This compound showed a Mean binding activity (without calibration) of 39.9%.

Consider `O=C(O)c1cccnc1` [Nicotinic acid], for which the “Binding signal (binding observed or not)” value is recorded as “no binding was observed”.
